The test system of this assay is hedgehog signaling pathway. Put plainly: Gli-Luc Reporter Assay for Hh Pathway Inhibition (TMHh-12 cells, pTA-8×Gli-Luc reporter). Type of assay: cell-based, Mouse. To be noted: read-out: IC50 Ranges. Summed up: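 Mouse TM3 cells stably carrying an 8×Gli-firefly luciferase reporter, in 2% FBS medium; pathway activated with recombinant mouse Shh (8 μg/mL) or Smo agonist, compounds added at varying concentrations for 48 h. Luminescence read; IC50 at 50% signal reduction. Toxicity checked in TM3 cells (CellTiter-Glo) or constitutive-luciferase TM3-Luc cells.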

[1] abbreviates: Mus musculus, TMHh12, enzymatic and cellular assays for the inhibition of hedgehog signaling pathways.
Where [2] appears, read: enzymatic and cellular assays for the inhibition of hedgehog signaling pathways.

Read-outs that look alike come from different tables or passages of the source.

A word on the IC50: it is the midpoint of a concentration-inhibition curve. For `Cc1ccc(Nc2cccc3c2CCN(C2CS(=O)(=O)C2)C3)cc1-c1ncc(F)cc1F` [Compound 325], the IC50 under setting [1] fell in the range of 0.001 to 1 nM.
As for `Cc1ccc(Nc2cccc3c2CCN(C2CCS(=O)(=O)C2)C3)cc1-c1ncc(F)cc1F` (stereo not shown) [Compound 326], under setting [1], the IC50 lay within 0.001 to 1 nM.
For the molecule `CCOc1ccc(-c2cc(Nc3cccc4c3CCN(C3CCS(=O)(=O)CC3)C4)ccc2C)nn1` [Compound 327], the IC50 under setting [1] lay within 1 to 10 nM.
Still for that read-out and setting: to `CCOc1ccc(-c2nc(Nc3cccc4c3CCN(S(=O)(=O)C(C)C)C4)ccc2C)nn1` [Compound 328] belongs 1 to 10 nM; to `CCOc1ccc(-c2nc(Nc3cccc4c3CCN(C3CS(=O)(=O)C3)C4)ccc2C)nn1` [Compound 329], 10 to 100 nM.
As to `CCOc1cnc(-c2nc(Nc3cccc4c3CCN(S(=O)(=O)CC)C4)ccc2C)cn1` [Compound 330], the IC50 under setting [1] fell in the range of 1 to 10 nM.
The same measure, in the same setting: the same measure for `Cc1ccc(Nc2nccc3c2CCN(S(C)(=O)=O)C3)cc1-c1cc2ccccc2cn1` [Compound 331]: 10 to 100 nM; for `Cc1ccc(Nc2nccc3c2CCN(C2CS(=O)(=O)C2)C3)cc1-c1cc2ccccc2cn1` [Compound 332]: 10 to 100 nM; for `CCOc1cnc(-c2nc(Nc3cccc4c3CCN(S(C)(=O)=O)C4)ccc2C)cn1` [Compound 333]: 10 to 100 nM.
Still for that read-out and setting: the same measure for `CCOc1ccc(-c2nc(Nc3cccc4c3CCN(C3CCS(=O)(=O)C3)C4)ccc2C)nn1` (stereo not shown) [Compound 334]: 10 to 100 nM.
As to `CCOc1cnc(-c2cc(Nc3cccc4c3CCN(C3CCS(=O)(=O)CC3)C4)ccc2C)cn1` [Compound 335], the IC50 under setting [1] lay within 1 to 10 nM.
On the same count and under the same terms, the same measure for `CCOc1cnc(-c2nc(Nc3cccc4c3CCN(S(=O)(=O)C(C)C)C4)ccc2C)cn1` [Compound 336]: 10 to 100 nM.
In the case of `Cc1ccc(Nc2cccc3c2CCN(C2CCS(=O)(=O)C2)C3)cc1-c1ncc(F)cc1F` (stereo not shown) [Compound 338], the IC50 under setting [2] was 0.001 to 1 nM.
As to `CCOc1ccc(-c2cc(Nc3cccc4c3CCN([C@@H]3CCS(=O)(=O)C3)C4)ccc2C)nn1` [Compound 339], the IC50 under setting [1] lay within 1 to 10 nM.
The same measure, in the same setting: the same measure for `CCOc1ccc(-c2cc(Nc3cccc4c3CCN([C@H]3CCS(=O)(=O)C3)C4)ccc2C)nn1` [Compound 340]: 1 to 10 nM.
For `Cc1ccc(Nc2cccc3c2CCN([C@@H]2CCS(=O)(=O)C2)C3)cc1-c1ncccc1F` [Compound 341], under setting [2], the IC50 is 0.001 to 1 nM.
As for `Cc1ccc(Nc2ncnc3c2CCN(C2CCS(=O)(=O)CC2)C3)cc1-c1cc2ccccc2cn1` [Compound 342], under setting [1], the IC50 lay in the range of 1 to 10 nM.
For the molecule `Cc1ccc(Nc2cccc3c2CCN([C@H]2CCS(=O)(=O)C2)C3)cc1-c1ncccc1F` [Compound 343], under setting [2], the IC50 lay within 0.001 to 1 nM.
Consider `Cc1ccc(Nc2nccc3c2CCN(C2CCS(=O)(=O)CC2)C3)cc1-c1cc2ccccc2cn1` [Compound 344], for which, under setting [1], the IC50 fell in the range of 0.001 to 1 nM.
Turning to `Cc1ccc(Nc2cccc3c2CCN([C@H]2CCS(=O)(=O)C2)C3)cc1-c1ncccc1F` [Compound 345], the IC50 under setting [2] was in the range of 0.001 to 1 nM.
As to `Clc1ccc(Nc2ccc3c(c2)CN(C2CCOCC2)CC3)cc1-c1nc(-c2ccccc2)c[nH]1` [Compound 346], the IC50 under setting [1] is 10 to 100 nM.
Same read-out and setting: to `CCN1CCC(N2CCc3ccc(Nc4ccc(Cl)c(-c5nc(-c6ccccc6)c[nH]5)c4)cc3C2)CC1` [Compound 347] belongs 10 to 100 nM.

(Values after US9216964B2, “Hedgehog pathway modulators” (Novartis AG, priority 2008, dated 2015).)
